How the values were obtained:
[1] = Fluorescence quantum yield (Coumarin 307 as reference); format: physicochemical
Experimental: The absorption spectra of the two-photon probes were recorded on a Hewlett-Packard 8453 diode array spectrophotometer, and the fluorescence spectra of the two-photon probes were obtained with an Amico-Bowman series 2 luminescence spectrometer with a 1 cm standard quartz cell. The fluorescence quantum yields of the two-photon probes were determined by using Coumarin 307 as the reference by the literature method (J. N. Demas, G. A. Crosby, J. Phys. Chem. 1971, 75, 991-1024.). FIGS. 2a and 2b are one-photon absorption and emission spectra of the two-photon probe AZn1, respectively, and FIGS. 2c and 2d are one-photon absorption and emission spectra of the two-photon probe AZn2, respectively.

[2] = Two-photon cross section and action spectra; format: physicochemical; details: MOPS buffer pH 7.2, presence of Zn2+; 780 nm
Experimental: The two-photon cross section (δ) was determined by using femto second (fs) fluorescence measurement technique.
The intensities of the two-photon induced fluorescence spectra of the reference and the sample probe were measured, and the two-photon cross section of the sample probe was calculated according to Equation 3:
[formula] wherein the subscripts s and r represent sample and reference molecules, respectively, δ represents the two-photon cross section, S represents the strength of signals collected by a CCD detector, φ represents the fluorescence quantum efficiency, φrepresents the total fluorescence collection efficiency of an experimental system, c represents the number density of the molecules within each of the solutions, and δr represents the two-photon cross section of reference molecules.
Referring to FIG. 9, the two-photon action spectra of the Zn^2+ complexes with AZn1 and AZn2 in the buffer solutions indicated a φδ value of ˜90 GM at 780 nm, 4˜24-fold larger than those of TSQ and FluZin-3.

293 cells [3] = experiment: Two-photon microscopy of probe-labeled 293 cells; format: cell-based; details: for TPEF of labeled cells collected at 360-460 nm / TPEF of labeled cells collected at 500-620 nm: 2 μM probe, excitation 780 nm
Experimental: 293 cells were incubated in DMEM (WelGene) supplemented with 10% FBS (WelGene), penicillin (100 unit/ml) and streptomycin (100 μg/ml).
Two days before imaging, the cells were transferred to glass-bottomed dishes (MatTek) and plated thereon. For labeling, the growth medium was replaced with FBS-free DMEM. The cells were incubated under 5% CO2, 37° C., using a 2 μM sensor for 30 minutes, washed three times with phosphate-buffered saline (PBS; Gibco), and further incubated in a colorless serum-free medium. Meanwhile, primary cortical cultures were taken from cerebral cortices of 1-day-old rats (Sprague-Dawley (SD)). The cerebral cortices were dissociated in Hank's balanced salt solution (HBSS; Gibco BRL, Gaithersburg, Md., USA) containing 1 U/ml papain (Worthington Biochemical Corporation, NJ, USA), plated at a density of 100 to 200 cells/mm^2 on poly-D-lysine and laminin-coated glass cover slips, and maintained in Neurobasal media (Gibco) supplemented with 2% B-27 (Gibco) and penicillin/streptomycin in a CO2 incubator at 37° C. After […] 7-15 days, the cortical cultures were washed three times with PBS and incubated in the presence of AZn2 (2 μM) in PBS at 37° C. for 30 minutes.
Two-photon fluorescence microscopy images of cells and tissue labeled with AZn2 were obtained with spectral confocal and multiphoton microscopes (Leica TCS SP2) with a ×100 oil objective and numerical aperture (NA)=1.30. The two-photon fluorescence microscopy images were obtained by exciting the two-photon probe with a mode-locked titanium-sapphire laser source (Coherent Chameleon, 90 MHz, 200 fs) set at wavelength of 780 nm and an output power of 1,230 mW, which corresponded to approximately 10 mW average power in the focal plane. To obtain images at 360-460 nm and 500-620 nm range, internal PMTs were used to collect the signals in an 8 bit unsigned 512×512 pixels at 400 Hz scan speed.
Moreover, because the fluorescence intensities of the two-photon probes increase slightly at pH<4 (FIGS. 8a and 8b), there is a possibility that the probes in the acidic vesicles might partially contribute to the TPM images. To rule out such possibility, 293 cells and primary cortical cultures were co-stained with AZn2 and LysoTracker Red (LTR), a well known one-photon fluorescent probe for the acidic vesicles, and the images were co-localized.
More specifically, (a) and (f) are bright field images, (b) and (g) are pseudo colored images of the AZn2-labeled 293 cells collected at 360-460 nm, (c) and (h) are pseudo colored images of the AZn2-labeled 293 cells collected at 500-580 nm, (d) and (i) are OPM images of the LTR-labeled 293 cells collected at 600-650 nm, and (e) and (j) are co-localized images. The one-photon and two-photon excitations were performed at 543 nm and 780 nm, respectively, the scale bar is 30 μm, and the images shown are representative images from replicate experiments (n=5).
FIG. 13 is images of AZn1- and LTR (2 μM for each)-labeled 293 cells: (a)-(e) and (f)-(j) are images of the labeled cells before and after addition of 100 μM TPEN to the imaging solution, respectively. More specifically, (a) and (f) are bright field images; (b) and (g) are pseudo colored images of the AZn1-labeled 293 cells collected at 360-460 nm; (c) and (h) are pseudo colored images of the AZn1-labeled 293 cells collected at 500-580 nm; (d) and (i) are OPM images of the LTR-labeled 293 cells collected at 600-650 nm; and (e) and (j) are co-localized images. […]

293 cells [4] = experiment: TPEF monitoring of labeled 293 cells after SNOC and TPEN; format: cell-based; details: 10 mM SNOC, 0.1 mM TPEN, compared with AZn2
Experimental: Referring to FIG. 14, the TPEF intensity increased gradually with time and then decreased abruptly upon addition of 0.1 mM TPEN, a membrane permeable Zn^2+chelator that can effectively remove Zn^2+.

[5] = 20 mM MOPS, 100 mM KCl, 10 mM EGTA, pH 7.2, absence of Zn2+, ±10%
[6] = 20 mM MOPS, 100 mM KCl, 10 mM EGTA, pH 7.2, presence of Zn2+, ±10%

fluorescence quantum yield φ [1, 5]	fluorescence quantum yield φ [1, 6]	fluorescence quantum yield φ ([1]; 1,4-dioxane, ±15%)	fluorescence quantum yield φ ([1]; DMF, ±15%)	fluorescence quantum yield φ ([1]; Ethanol, ±15%)	fluorescence quantum yield φ ([1]; H2O, ±15%)	δ, peak two-photon cross section [2] [GM]	φδ, two-photon action cross section [2] [GM]	SMILES	TPEF of labeled cells collected at 360-460 nm (293 cells [3])	TPEF of labeled cells collected at 500-620 nm (293 cells [3])	TPEF response after SNOC then TPEN (293 cells [4])	intracellular location of probe (293 cells [3])
0.022	0.47	0.19	0.055	0.057	0.022	210	86	Nc1ccc(NCCN(Cc2ccccn2)Cc2ccccn2)cc1 [AZn1]	no TPEF	appreciable TPEF	the response was smaller	
0.012	0.65	0.094	0.037	0.039	0.012	140	95	COc1cc(NC(=O)CN(C)c2ccc3cc(C(C)=O)ccc3c2)ccc1NCCN(Cc1ccccn1)Cc1ccccn1 [AZn2]	no TPEF	appreciable TPEF		predominantly located in the cytosolic compartments
